Source: patent US4318826A, “Carbonylation catalysts” (Exxon Research & Engineering Co., priority 1980, dated 1982)
Where two headings read alike, the source gives them in different places.

Key:
[1] = Example 8 / Table II: effect of catalyst on carbonylation of methanol to methyl acetate; settings: CH3 I 8.0 mmole, 175° C., 1000 psi; for % Selectivity: additional product dimethyl ether
[2] = Example 7: effect of cocatalyst on production of methyl acetate from CH3 OH; settings: 175° C.
[3] = Example 11: hydroformylation of propylene; settings: 133 °C.
Protocol: Reaction Conditions: 1000 psig Total pressure, CO/H2 (50/50) mixture), 60 ml benzene as solvent, 0.30-0.45 moles propylene, 0.5 mmoles catalyst (based on Rh).

[4] = Table III: effect of cocatalyst on carbonylation of methanol to methyl acetate
[5] = Protocol: This conversion is run at elevated pressures, preferably from 1,500 to 3,000 psi. Reaction temperatures will range from 50° C. to 200° C., with a range of 100° C. to 150° C. preferred. Ratio of H2 to CO used will vary with reaction conditions; preferably a 1 to 1 ratio is maintained. The catalyst concentration will range from 0.01 to 20% based on the weight feed, with 0.05 to 10 % preferred.
30 ml. of hexene-1, 20 ml. of benzene, and 0.3 gm. […] The bomb was heated to 140° C. and held until the reaction was complete.

[6] = catalyst 2.0 mmole, 16-19 hours (Co(C5 H7 O2)3: 67)
[7] = cocatalyst 4.0 mmole, 4000 psi CO, 4 hours
[8] = cocatalyst 8.0 mmole, 1000 psi CO, CH3 I 18 hours, CH3 CH2 I 19 hours, C6 H5 I 90 hours
[9] = cocatalyst 8.0 mmole, 175° C., 1000 psi, CH3 I 18 hr, CH3 CH2 I 19 hr, C6 H5 I 90 hr
[10] = cocatalyst 8.0 mmole, 3.25 hr, 175° C., 4000 psi CO
[11] = cocatalyst 16.0 mmole, 4.25 hr, 175° C., 4000 psi CO
[12] = catalyst 1.0 mmole, 18-21 hours

Molecule: CC(=O)[CH-]C(C)=O.CC(=O)[CH-]C(C)=O.CC(=O)[CH-]C(C)=O.[Co+3] [Co(C5 H7 O2)3]
- % Conversion [1, 6]: 16%
- % Selectivity [1, 6]: 23%

Molecule: II [Example I2, iodine]
- methyl acetate produced (head is a drawing) ([2]; cocatalyst 2.0 mmole, 4000 psi CO, 4 hours): 5.2 mL

Molecule: O=[C]=[Rh]([Cl])([PH](c1ccccc1)(c1ccccc1)c1ccccc1)[PH](c1ccccc1)(c1ccccc1)c1ccccc1 [((C6 H5)3 P)2 Rh(CO)Cl]
- (%) n-C4 H8 O (percent straight chain isomer) ([3]; 1000 psig CO/H2 50/50): 56%
- k (pseudo 1st order reaction rate constant) ([3]; 1000 psig CO/H2 50/50): 0.0744 min⁻¹
- t1/2 ([3]; t1/2 = ln 2/k): 9.32 min

Molecule: CBr [CH3 Br]
- promotional effect as cocatalyst [4]: inventive

Molecule: I [HI, hydrogen iodide]
- methyl acetate produced (head is a drawing) [2, 7]: 6.6 mL
- % Conversion to Methyl Acetate [4]: 8
- % Selectivity to Methyl Acetate [4]: 47

Molecule: CI [CH3 I, methyl iodide]
- methyl acetate produced (head is a drawing) [2, 8]: 21.4 mL
- methyl acetate produced (head is a drawing) ([2]; cocatalyst 8.0 mmole, 4000 psi CO, 4 hours): 29.6 mL
- methyl acetate produced (head is a drawing) ([2]; cocatalyst 16.0 mmole, 4000 psi CO, 4 hours): 19.8 mL
- % Conversion to Methyl Acetate [4, 9]: 24%
- % Selectivity to Methyl Acetate [4, 9]: 85%
- % Conversion to Methyl Acetate [4, 10]: 29%
- % Selectivity to Methyl Acetate [4, 10]: 97%
- % Conversion to Methyl Acetate [4, 11]: 25%
- % Selectivity to Methyl Acetate [4, 11]: 74%

Molecule: [I-].[Li+] [LiI]
- methyl acetate produced (head is a drawing) [2, 7]: 1 mL
- % Conversion to Methyl Acetate [4]: 0.6
- % Selectivity to Methyl Acetate [4]: 100

Molecule: [C-]#[O+].[C-]#[O+].[C-]#[O+].[C-]#[O+].[C-]#[O+].[C-]#[O+].[C-]#[O+].[C-]#[O+].[Co].[Co] [Co2 (CO)8]
- % Conversion [1, 12]: 3.5%
- % Selectivity [1, 12]: 6.4%

Molecule: Ic1ccccc1 [C6 H5 I]
- methyl acetate produced (head is a drawing) [2, 8]: 22.3 mL
- % Conversion to Methyl Acetate [4, 9]: 25%
- % Selectivity to Methyl Acetate [4, 9]: 52%

Molecule: CCI [CH3 CH2 I]
- methyl acetate produced (head is a drawing) [2, 8]: 17.5 mL
- % Conversion to Methyl Acetate [4, 9]: 20%
- % Selectivity to Methyl Acetate [4, 9]: 85%

Molecule: tetrakis tetrahydrofuran adduct of a magnesium-dicobalt hexacarbonyl bismethyldiphenylphosphine complex [[C4 H8 O]4 Mg[Co(CO)3 PCH3 (C6 H5)2]2]
- hexene-1 converted to C7 aldehydes and C7 alcohols ([5]; 1500 psi, H2 :CO 1:1, 140° C.): 99%
- reacted product that was an aldehyde ([5]; 1500 psi, H2 :CO 1:1, 140° C.): 87%
- conversion of 1-hexene to heptaldehydes ([5]; description): > 99%
- selectivity in conversion of 1-hexene to heptaldehydes ([5]; description): 87%
